Measurements published in patent US9371331B2, “Modulators of methyl modifying enzymes, compositions and uses thereof” (Constellation Pharmaceuticals, Inc., priority 2012, dated 2016).
Read-outs that look alike come from different tables or passages of the source.

Experiments:
Y641N EZH2 = Y641N EZH2 (Homo sapiens, UniProt Q15910, Y641N); assay: Y641N EZH2 assay: as EZH2 assay, with reconstituted H3K27Me2 oligonucleosomes as substrate; type: biochemical
EZH2 (rPRC2) = EZH2 (rPRC2) (Homo sapiens, UniProt Q15910); assay: EZH2 assay: rPRC2, biotinylated oligonucleosomes, 3H SAM methyl transfer (FlashPlate scintillation); type: biochemical; conditions: biotinylated oligonucleosome substrate
EZH2 (rPRC2), sequence (Q15910 whole entry): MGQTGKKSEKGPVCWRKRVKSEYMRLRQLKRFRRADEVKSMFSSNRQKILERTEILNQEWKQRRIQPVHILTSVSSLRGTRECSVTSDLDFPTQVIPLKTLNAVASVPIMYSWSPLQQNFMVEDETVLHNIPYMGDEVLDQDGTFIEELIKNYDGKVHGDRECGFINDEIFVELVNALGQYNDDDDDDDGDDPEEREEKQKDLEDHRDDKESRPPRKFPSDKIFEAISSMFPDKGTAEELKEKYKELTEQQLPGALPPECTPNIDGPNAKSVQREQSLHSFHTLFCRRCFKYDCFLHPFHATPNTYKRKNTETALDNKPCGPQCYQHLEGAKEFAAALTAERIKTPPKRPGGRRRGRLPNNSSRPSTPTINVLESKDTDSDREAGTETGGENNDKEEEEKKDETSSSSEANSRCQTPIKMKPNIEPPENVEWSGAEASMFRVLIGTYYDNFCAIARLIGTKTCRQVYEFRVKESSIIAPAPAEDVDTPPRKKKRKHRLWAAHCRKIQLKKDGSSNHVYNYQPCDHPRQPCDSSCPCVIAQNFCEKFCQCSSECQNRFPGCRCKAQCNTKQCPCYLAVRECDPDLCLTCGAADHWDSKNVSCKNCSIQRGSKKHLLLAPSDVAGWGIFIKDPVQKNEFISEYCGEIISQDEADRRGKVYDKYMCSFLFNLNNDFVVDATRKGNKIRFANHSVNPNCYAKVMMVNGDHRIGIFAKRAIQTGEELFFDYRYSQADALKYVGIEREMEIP
EZH2 (rPRC2), sequence (O75530 whole entry partner): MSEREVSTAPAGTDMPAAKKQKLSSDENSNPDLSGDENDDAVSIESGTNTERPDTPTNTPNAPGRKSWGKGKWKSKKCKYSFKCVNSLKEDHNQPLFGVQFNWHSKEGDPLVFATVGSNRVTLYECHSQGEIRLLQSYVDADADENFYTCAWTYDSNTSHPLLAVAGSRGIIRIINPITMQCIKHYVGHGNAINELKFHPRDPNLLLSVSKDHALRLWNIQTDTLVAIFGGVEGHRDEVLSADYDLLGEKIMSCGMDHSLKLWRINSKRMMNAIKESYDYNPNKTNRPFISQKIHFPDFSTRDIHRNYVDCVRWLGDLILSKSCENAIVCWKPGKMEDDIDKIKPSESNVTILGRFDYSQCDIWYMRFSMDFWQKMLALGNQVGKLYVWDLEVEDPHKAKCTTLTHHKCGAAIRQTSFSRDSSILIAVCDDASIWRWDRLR
EZH2 (rPRC2), sequence (Q15022 whole entry partner): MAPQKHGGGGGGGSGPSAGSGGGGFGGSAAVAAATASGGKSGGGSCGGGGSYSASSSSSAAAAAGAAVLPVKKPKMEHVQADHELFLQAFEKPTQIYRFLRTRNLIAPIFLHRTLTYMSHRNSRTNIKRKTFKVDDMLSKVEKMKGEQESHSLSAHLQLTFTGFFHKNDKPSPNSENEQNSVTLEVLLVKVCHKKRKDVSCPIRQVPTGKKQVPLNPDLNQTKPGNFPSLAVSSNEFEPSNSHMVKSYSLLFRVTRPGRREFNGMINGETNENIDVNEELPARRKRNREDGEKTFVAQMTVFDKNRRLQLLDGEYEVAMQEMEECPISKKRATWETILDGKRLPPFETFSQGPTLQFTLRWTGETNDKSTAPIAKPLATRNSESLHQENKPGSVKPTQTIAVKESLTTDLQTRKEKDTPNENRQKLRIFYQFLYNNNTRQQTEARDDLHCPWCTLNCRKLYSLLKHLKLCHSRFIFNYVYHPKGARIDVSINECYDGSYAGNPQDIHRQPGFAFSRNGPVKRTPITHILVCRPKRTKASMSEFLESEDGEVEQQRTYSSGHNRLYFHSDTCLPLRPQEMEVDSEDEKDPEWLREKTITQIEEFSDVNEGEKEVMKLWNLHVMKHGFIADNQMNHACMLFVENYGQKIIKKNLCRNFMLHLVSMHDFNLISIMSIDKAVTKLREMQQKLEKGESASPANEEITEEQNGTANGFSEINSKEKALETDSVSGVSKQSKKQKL

[1] = test system: H3K27me3 mark in HeLa cells; assay: H3K27me3 Alpha Hela Assay (AlphaLISA); type: cell-based; conditions: 72 hrs; for EC50: Homo sapiens, read-out: H3K27me3_Alpha_HeLa_ (EC50)
Protocol: H3K27me3 Alpha Hela Assay (AlphaLISA).
Ten different doses of each test compound (in a series of 3-fold dilutions) were plated in duplicate 384-well tissue culture treated plates (Catalog #781080; Greiner Bio One; Monroe, N.C.). Hela cells grown in culture were trypsinized and counted using a Countess® cell counter (Catalog #C10281; Life Technologies, Grand Island, N.Y.). Cell were diluted to 67,000 cells per mL in 10% DMEM (Catalog #10569-010 Life Technologies. Grand Island, N.Y.) and 15 μL (1,000 cells) were plated into each well using the Biotek MicroFlo™ Select Dispenser (BioTek Instruments. Inc. Vermont, USA),) of the 384-well plate. Plates were incubated at 37° C./5% CO2 for 72 hrs. One of the duplicate plates was processed for HeLa assay and the other for viability.
To the plate processed for AlphaLISA was added 5 μL per well Cell-Histone Lysis buffer (1×) (Catalog #AL009F1 Perkin Elmer; Waltham, Mass.) and the plate was incubated at RT for 30 minutes on a plate shaker with low speed (Model#4625-Q Thermo Scientific; Waltham, Mass.). Then, 10 µL per well Histone Extraction buffer (catalog #AL009F2: Perkin Elmer; Waltham, Mass.) was added and the plate further incubated at RT for 20 min on plate shaker with low speed. To each well was then added 10 μL per well of a 5× mix of anti-K27me3 acceptor beads plus Biotinylated anti-Histone H3 (C-ter) Antibody (diluted to 3 nM final) (Catalog #AL118 Perkin Elmer; Waltham, Mass.). Dilution of the acceptor beads and then anti-Histone H3 was with 1× Histone Detection buffer (Catalog #AL009F3 Perkin Elmer; Waltham, Mass.) which was produced diluted from the 10× stock provided. The plate was sealed with an aluminum plate sealer and incubated at 23° C. for 60 min. We then added 10 μL 5× solution of Streptavidin Donor beads (Catalog #6760002 Perkin Elmer; Waltham, Mass.) (20 μg/mL final in 1× Histone Detection Buffer), sealed the plate with Aluminum plate sealer and incubated at 23° C. for 30 min. The plates were then read using an EnVision-Alpha Reader (model #2104 Perkin Elmer: Waltham, Mass.).
Data from both assays was analyzed using Assay Assistant (Constellation Pharmaceuticals In-house product) and Activity Base (IDBS Ltd. Surrey, UK) template. Data files were imported to Assay Assistant and assay conditions were specified. A unique Analysis ID was created and the data files exported to Activity Base. An analysis template was created on Activity Base to measure dose-dependent inhibition of H3K27me3 mark and cell viability respectively. Readout of DMSO wells were used to normalize the data. Resulting curves were fitted using Activity base software Model 205 (IDBS Ltd, Surrey, UK). The data was checked for quality, validated and integrated in excel format using SARview (IDBS Ltd, Surrey, UK).

[2] = Y641N EZH2 IC50, Y641N mutant EZH2, H3K27Me2 oligonucleosome substrate
[3] = EZH2 IC50, wild-type EZH2 (rPRC2)
[4] = Y641N mutant EZH2, H3K27Me2 oligonucleosome substrate, read-out: Y641N EZH2 IC50
[5] = wild-type EZH2 (rPRC2), read-out: EZH2 IC50

Y641N EZH2, sequence (Q15910 whole entry Y641N): as the sequence (Q15910 whole entry) above, with Y641N counted along it
Y641N EZH2, sequence (O75530 whole entry partner): as the sequence (O75530 whole entry partner) above
Y641N EZH2, sequence (Q15022 whole entry partner): as the sequence (Q15022 whole entry partner) above

Compound | IC50 (Y641N EZH2; [2]) | IC50 (EZH2 (rPRC2); [3]) | EC50 [1] | IC50 (Y641N EZH2; [4]) | IC50 (EZH2 (rPRC2); [5]) | H3K27me3_Alpha_HeLa_ (EC50) [1]
COc1cc(C)[nH]c(=O)c1CNC(=O)c1c(C)n(C(C)C2CN(S(C)(=O)=O)C2)c2ccccc12 (racemic) [Compound 354, (±)-N-((4-methoxy-6-methyl-2-oxo-1,2-dihydropyridin-3-yl)methyl)-2-methyl-1-(1-(1-(methylsulfonyl)azetidin-3-yl)ethyl)-1H-indole-3-carboxamide] | < 0.1 µM | < 0.1 µM | 0.4 to 2 µM | – | – | –
COc1cc(C)[nH]c(=O)c1CNC(=O)c1c(C)n(C(C)C2CCN(c3ncccn3)CC2)c2ccccc12 (single isomer, unassigned) [Compound 361, (R or S)—N-((4-methoxy-6-methyl-2-oxo-1,2-dihydropyridin-3-yl)methyl)-2-methyl-1-(1-1-(pyrimidin-2-yl)piperidin-4-yl)ethyl)-1H-indole-3-carboxamide] | < 0.1 µM | < 0.1 µM | < 0.4 µM | – | – | –
COc1cc(C)[nH]c(=O)c1CNC(=O)c1c(C)n(-c2cccc3c2CCCN3)c2ccccc12 [Compound 339, N-((4-methoxy-6-methyl-2-oxo-1,2-dihydropyridin-3-yl)methyl)-2-methyl-1-(1,2,3,4-tetrahydroquinolin-5-yl)-1H-indole-3-carboxamide] | – | – | < 0.4 µM | < 0.1 µM | < 0.1 µM | –
COc1cc(C)[nH]c(=O)c1CNC(=O)c1c(C)n(C(C)C2CCN(C(=O)OC(C)C)CC2)c2ccccc12 (single isomer, unassigned) [Compound 346, (R or S)-isopropyl 4-(1-(3-((4-methoxy-6-methyl-2-oxo-1,2-dihydropyridin-3-yl)methylcarbamoyl)-2-methyl-1H-indol-1-yl)ethyl)piperidine-1-carboxylate] | < 0.1 µM | < 0.1 µM | < 0.4 µM | – | – | –
Cc1cc(C)c(CNC(=O)c2c(C)n(C(C)C3CCN(C4CN(C)C4)CC3)c3ccccc23)c(=O)[nH]1 (single isomer, unassigned) [Compound 377, (R or S)-N-((4,6-dimethyl-2-oxo-1,2-dihydropyridin-3-yl)methyl)-2-methyl-1(1-(1-(1-methylazetidin-3-yl)piperidin-4-yl)ethyl)-1 H-indole-3-carboxamide] | < 0.1 µM | < 0.1 µM | 0.4 to 2 µM | – | – | –
COc1cc(C)[nH]c(=O)c1CNC(=O)c1c(C)n(C(C)C2CCN(C)CC2)c2ccccc12 (single isomer, unassigned) [Compound 343, (R or S)-N-((4-methoxy-6-methyl-2-oxo-1,2-dihydropyridin-3-yl)methyl)-2-methyl-1-(1-(1-methylpiperidin-4-yl)ethyl)-1H-indole-3-carboxamide] | < 0.1 µM | < 0.1 µM | 0.4 to 2 µM | – | – | –
COCC(C)(C)n1c(C)c(C(=O)NCc2c(OC)cc(C)[nH]c2=O)c2ccccc21 [Compound 338, 1-(1-methoxy-2-methylpropan-2-yl)-N-((4-methoxy-6-methyl-2-oxo-1,2-dihydropyridin-3-yl)methyl)-2-methyl-1H-indole-3-carboxamide] | 0.1 to 1 µM | < 0.1 µM | 0.4 to 2 µM | – | – | –
COc1cc(C)[nH]c(=O)c1CNC(=O)c1c(C)n(C(C)C2CCN(C(C)C)CC2)c2ccccc12 (single isomer, unassigned) [Compound 358, (R or S)-1-(1-(1-isopropylpiperidin-4-yl)ethyl)-N-((4-methoxy-6-methyl-2-oxo-1,2-dihydropyridin-3-yl)methyl)-2-methyl-1H-indole-3-carboxamide] | < 0.1 µM | < 0.1 µM | 0.4 to 2 µM | – | – | –
COc1cc(C)[nH]c(=O)c1CNC(=O)c1c(C)n(-c2cccc3c2CCCN3S(C)(=O)=O)c2ccccc12 [Compound 371, N-((4-methoxy-6-methyl-2-oxo-1,2-dihydropyridin-3-yl)methyl)-2-methyl-1-(1-(methylsulfonyl)-1,2,3,4-tetrahydroquinolin-5-yl)-1H-indole-3-carboxamide] | – | – | – | < 0.1 µM | < 0.1 µM | *(3.33 μM)
COc1cc(C)[nH]c(=O)c1CNC(=O)c1c(C)n(C(C)C2CCC(S(=O)(=O)C(C)C)CC2)c2ccccc12 (single isomer, unassigned) [Compound 355, (R or S)-1-(1-(4-(isopropylsulfonyl)cyclohexyl)ethyl)-N-((4-methoxy-6-methyl-2-oxo-1,2-dihydropyridin-3-yl)methyl)-2-methyl-1 H-indole-3-carboxamide] | < 0.1 µM | < 0.1 µM | < 0.4 µM | – | – | –
Cc1cc(C)c(CNC(=O)c2c(C)n(C(C)C3CCN(CC(C)(C)O)CC3)c3ccccc23)c(=O)[nH]1 (single isomer, unassigned) [Compound 369, (R or S)-N-((4,6-dimethyl-2-oxo-1,2-dihydropyridin-3-yl)methyl)-1-(1-(1-(2-hydroxy-2-methylpropyl)piperidin-4-yl)ethyl)-2-methyl-1H-indole-3-carboxamide] | < 0.1 µM | < 0.1 µM | < 0.4 µM | – | – | –
COc1cc(C)[nH]c(=O)c1CNC(=O)c1c(C)n(C(C)C2CCN(CCF)CC2)c2ccccc12 (single isomer, unassigned) [Compound 356, (R or S)-1-(1-(1-(2-fluoroethyl)piperidin-4-yl)ethyl)-N-((4-methoxy-6-methyl-2-oxo-1,2-dihydropyridin-3-yl)methyl-2-methyl-1H-indole-3-carboxamide] | < 0.1 µM | < 0.1 µM | < 0.4 µM | – | – | –
COc1cc(C)[nH]c(=O)c1CNC(=O)c1c(C)n(C(C)C2CCN(c3ccccn3)CC2)c2ccccc12 (single isomer, unassigned) [Compound 373] | < 0.1 µM | < 0.1 µM | < 0.4 µM | – | – | –
COc1cc(C)[nH]c(=O)c1CNC(=O)c1c(C)n(C(C)C2CCOCC2)c2cc(Cl)ccc12 (single isomer, unassigned) [Compound 314, (R or S)-6-chloro-N-((4-methoxy-6-methyl-2-oxo-1,2-dihydropridin-3-1)methyl)-2-methyl-1-(1-(tetrahydro-2H-pyran-4-yl)ethyl)-1H-indole-3-carboxamide] | < 0.1 µM | < 0.1 µM | < 0.4 µM | – | – | –
CCS(=O)(=O)N1CCC(C(C)n2c(C)c(C(=O)NCc3c(C)cc(C)[nH]c3=O)c3ccccc32)CC1 (single isomer, unassigned) [Compound 368, (R or S)-N-(4,6-dimethyl-2-oxo-1,2-dihydropyridin-3-yl)methyl)-1-(1-(1-(ethylsulfonyl)piperidin-4-yl)ethyl)-2-methyl-1 H-indole-3-carboxamide] | – | – | < 0.4 µM | – | – | –
COc1cc(C)[nH]c(=O)c1CNC(=O)c1c(C)n(C(C)C2CCN(C(=O)C(C)(C)O)CC2)c2ccccc12 (single isomer, unassigned) [Compound 337, (R or S)-1-(1-(1-(2-hydroxy-2-methylpropanoyl)piperidin-4-yl)ethyl)-N-((4-methoxy-6-methyl-2-oxo-1,2-dihydropyridin-3-yl)methyl)-2-methyl-IH-indole-3-carboxamide] | – | – | < 0.4 µM | – | – | –
COCCN1CCC(C(C)n2c(C)c(C(=O)NCc3c(OC)cc(C)[nH]c3=O)c3ccccc32)CC1 (single isomer, unassigned) [Compound 359, (R or S)-N-((4-methoxy-6-methyl-2-oxo-1,2-dihysropyridin-3-yl)methyl)-1-(1-(1-(2-methoxyethyl)piperidin-4-yl)ethyl)-2-methyl-1 H-indole-3-carboxamide] | – | – | 0.4 to 2 µM | – | – | –
COc1cc(C)[nH]c(=O)c1CNC(=O)c1c(C)n(C(C)C2CCN(CC(F)(F)F)CC2)c2ccccc12 (single isomer, unassigned) [Compound 365, (R or S)-N-((4-methoxy-6-methyl-2-oxo-1,2-dihydropyridin-3-yl)methyl)-2-methyl-1-(1-(1-(2,2,2-trifluoroethyl)piperidin-4-yl)ethyl)-1H-indole-3-carboxamide] | – | – | < 0.4 µM | – | – | –
